The values below come from US12383527B2, “Methods for treating triple negative breast cancer using salvianolic acid B” (HOWARD UNIVERSITY, priority 2018, dated 2025).

Assay [1] relates to MCF-7 cells. Put plainly: Luciferase assay (bioluminescent cell viability). The class given is cell-based, human. The conditions noted are these: 24 hours. As to the method: (§1) Cell lines and culture. MCF-7 and MDA human breast cancer cell lines stably transfected with firefly luciferase gene were purchased from Caliper Life Sciences (Hanover, MD). MCF-7 cells were cultured in DMEM medium (Invitrogen, Carlsbad, CA) and MDA cells were grown in DMEM/F-12 (1:1) medium (Invitrogen). Both media were supplemented with 10% fetal bovine serum (Invitrogen) and antibiotic-antimycotic mixture (100 IU/ml penicillin and 100 μg/ml streptomycin; Cellgro). The cells were maintained at 37° C. in 5% CO2. All experiments were performed when the cells were in the logarithmic phase of growth. Luciferase assay. The MDA cell line and the hormone receptor-positive MCF-7 cell line were utilized to test the effectiveness of Sal-B and doxorubicin on cancer cell viability. Both cell lines had been stably transfected and expressed the firefly luciferase gene. The bioluminescent signal intensity reflects the cell metabolic activity, being highly correlated with the cell viability. Cell viability was evaluated using the sensitive bioluminescent optical imaging. The cells (10,000 per well) were seeded in flat-bottomed 96-well plates in the above-identified medium with 10% fetal bovine serum and allowed to grow overnight. The old medium was then replaced with fresh medium containing different concentrations of Sal-B (50, 100, 150, and 200 μM) or doxorubicin (0.1, 0.2, 0.5, and 1 μM). The cells were further cultured for 24 hours and D-luciferin was added to each well and mixed gently (final concentration of 150 μ/ml). The signal was measured with the Xenogen IVIS 200 imaging system (Caliper Life Sciences, Hopkinton, MA, USA). The system was equipped with a highly sensitive, cooled charge-coupled device (CCD) camera and a light-tight specimen box. Imaging and quantification of signals was controlled by the acquisition and analysis software Living Image 3.0. The bioluminescent signal from the cells in each well was expressed as total flux (photons per second (p/s)). At least five replicates were performed in each experiment, and each experiment was repeated at least three times. The representative data are presented.

Assay [2] has as its system MDA-MB-231 cells. Put plainly: Luciferase assay (bioluminescent cell viability). In kind it is cell-based, human. As to conditions: MDA cells, 24 hours. As to the method: as §1
For assay [3], the system named is cyclin A. Put plainly: Western blot of cyclin A expression in MDA and MCF-7 cells. The conditions noted are these: doxorubicin 1 μM, 24 hours. The class given is cell-based, human. As to the method:
(§2) The expression of two cell cycle-related proteins—cyclin A and cyclin B1—was checked by Western blot. The expression of cyclin A and cyclin B1 was normalized by the expression of the internal control β-actin (lower panel). The cells were treated with 50 μM and 100 μM Sal-B, respectively, for 24 hours. Doxorubicin (0.1 μM and 1 μM) was used as a control. […] The results may be explained by that the cell cycle progression is controlled by a large set of molecules, although cyclin B1 is a key component in the control of cell cycle progression from G2 to M phase.
The immunohistochemical results were consistent with those from Western blotting (FIG. 7, panel A). Western blot analysis was used to determine the expression of apoptosis-related proteins Bcl-XL, survivin, caspase-3 and caspase-8 (FIG. 7, panel A). β-actin was used as an internal control for Western blotting. The MCD-7 and MDA cells were treated with Sal-B (50 μM and 100 μM) and doxorubicin (0.1 μM and 1 μM), respectively, for 24 hours. Proteins were extracted from the cells with RIPA lysis buffer (Santa Cruz Biotechnology, Santa Cruz, CA) and the protein concentrations were quantified with Bio-Rad protein quantification kit. Whole-cell proteins were separated on 8% SDS-polyacrylamide gel, transferred to the polyvinylidene difluoride membrane (Bio-Rad), and then probed with the indicated primary antibodies overnight at 4° C. […]
For orientation: Immunoblotting shows a protein as a band on a membrane.

The test system of assay [4] is cyclin B1. Put plainly: Western blot of cyclin B1 expression in MDA and MCF-7 cells. In kind it is cell-based, human. The conditions noted are these: doxorubicin 1 μM, 24 hours. As to the method: as §2
(§3) The immunohistochemical results were consistent with those from Western blotting (FIG. 7, panel A). Western blot analysis was used to determine the expression of apoptosis-related proteins Bcl-XL, survivin, caspase-3 and caspase-8 (FIG. 7, panel A). β-actin was used as an internal control for Western blotting. The MCD-7 and MDA cells were treated with Sal-B (50 μM and 100 μM) and doxorubicin (0.1 μM and 1 μM), respectively, for 24 hours. Proteins were extracted from the cells with RIPA lysis buffer (Santa Cruz Biotechnology, Santa Cruz, CA) and the protein concentrations were quantified with Bio-Rad protein quantification kit. Whole-cell proteins were separated on 8% SDS-polyacrylamide gel, transferred to the polyvinylidene difluoride membrane (Bio-Rad), and then probed with the indicated primary antibodies overnight at 4° C. Washed blots were then incubated with horseradish peroxidase-conjugated anti-rabbit, anti-mouse, or anti-goat antibody (Santa Cruz Biotechnology), respectively, for one hour at room temperature. Blots were developed and visualized with ECL detection system (Bio-Rad).

Assay [5] has as its system MDA tumor xenografts. Put plainly: Human tumor xenografts in athymic nude mice, tumor weight. The conditions noted are these: doxorubicin 4 mg/kg every four weeks, intraperitoneal; day 37; mean±SD; untreated control 0.81±0.12 g. The class given is in vivo. As to the method: Human tumor xenografts in athymic nude mice. […] The animal protocol was approved by the Howard University Animal Care and Use Committee. Four-week-old female athymic nude mice (Nu/Nu) were obtained from Harlan Sprague Dawley (Indianapolis, IN). All mice were provided the Harlan Teklad #2018 Global 18% protein rodent diet and water ad libitum. Mice were housed in temperature-controlled rooms (74±2° F.) with a 12-hour alternating light-dark cycle. MDA cells (3×10^6/50 μL/spot) were subcutaneously injected into the both sides of lower back of mice using a 27-gauge needle. On day 10 after cell implantation, the mice with tumors (˜5 mm in diameter) were randomly divided into Sal-B treated, doxorubicin treated, and untreated groups (five mice per group), and were administrated Sal-B (80 mg/kg, three times per week), doxorubicin (4 mg/kg, every four weeks) and 0.9% saline (50 μl, three times per week), respectively, by intraperitoneal injection for a total of 37 days. […] All mice were sacrificed on day 37.
A general note: A xenograft is tissue or cells of one species grown in another, often human tumour cells in immunodeficient mice.

Assay [6] concerns proliferating cell nuclear antigen (PCNA). Put plainly: Immunohistochemical staining of PCNA in MDA tumor xenografts. The class given is in vivo, athymic nude mice. The conditions noted are these: doxorubicin 4 mg/kg every four weeks; versus untreated; P<0.05. As to the method: (§4) Human tumor xenografts in athymic nude mice. […] The animal protocol was approved by the Howard University Animal Care and Use Committee. Four-week-old female athymic nude mice (Nu/Nu) were obtained from Harlan Sprague Dawley (Indianapolis, IN). All mice were provided the Harlan Teklad #2018 Global 18% protein rodent diet and water ad libitum. Mice were housed in temperature-controlled rooms (74±2° F.) with a 12-hour alternating light-dark cycle. MDA cells (3×10^6/50 μL/spot) were subcutaneously injected into the both sides of lower back of mice using a 27-gauge needle. […]
(§5) Immunohistochemical staining was performed as described previously (Hao Y, et al., “Enforced expression of miR-101 inhibits prostate cancer cell growth by modulating the COX-2 pathway in vivo,” Cancer Prev Res (Phila), 2011; 4: 1073-1083). […] For the quantification, ten high-magnification (40×) fields were randomly selected from each slide of tumors and the positive cells were counted. The protein expression was expressed as the average number of positive cells per high magnification field.

The subject of assay [7] is Bcl-xL. Put plainly: Immunohistochemical staining of Bcl-xL in MDA tumor xenografts. In kind it is in vivo, athymic nude mice. As to conditions: doxorubicin 4 mg/kg every four weeks; versus untreated tumors; P<0.05. As to the method: as §4, §5
Assay [8] relates to survivin. Put plainly: Immunohistochemical staining of survivin in MDA tumor xenografts. The conditions noted are these: doxorubicin 4 mg/kg every four weeks; versus untreated group. In kind it is in vivo, athymic nude mice. As to the method: as §4, §5
In assay [9] the test system is MDA tumor xenografts. Put plainly: TUNEL assay of apoptotic cells in MDA tumor xenografts. The class given is in vivo, athymic nude mice. The conditions noted are these: doxorubicin 4 mg/kg every four weeks; untreated tumors 3.1±1.8; P<0.05. As to the method:
as §4
Apoptotic cells in MDA tumor xenografts were also analyzed by a terminal deoxynucleotidyl transferase-mediated dUTP nick end labeling (TUNEL) assay using the TdT-FragEL DNA Fragmentation Detection Kit (EMD Millipore, Burlington, MA) as previously described (Li H, et al., “Cellular uptake and anticancer activity of salvianolic acid B phospholipid complex loaded nanoparticles in head and neck cancer and precancer cells,” Colloids Surf B Biointerfaces. 2016; 147: 65-72). […]

The subject of assay [10] is Bcl-xL. Put plainly: Western blot of Bcl-xL expression in MDA and MCF-7 cells. The class given is cell-based, human. The conditions noted are these: doxorubicin 0.1 μM and 1 μM, 24 hours. As to the method: as §3
Assay [11] has as its system survivin. Put plainly: Western blot of survivin expression in MDA and MCF-7 cells. In kind it is cell-based, human. The conditions noted are these: doxorubicin 0.1 μM and 1 μM, 24 hours. As to the method:
as §3

For assay [12], the system named is ceramides. Put plainly: Immunohistochemistry of ceramides in MDA tumor xenografts. In kind it is in vivo, athymic nude mice. As to conditions: doxorubicin 4 mg/kg every four weeks; untreated control 2.3±0.7; P<0.05. As to the method: as §4
Immunohistochemical staining was performed as described previously (Hao Y, et al., “Enforced expression of miR-101 inhibits prostate cancer cell growth by modulating the COX-2 pathway in vivo,” Cancer Prev Res (Phila), 2011; 4: 1073-1083). […] For the quantification, ten high-magnification (40×) fields were randomly selected from each slide of tumors and the positive cells were counted. The protein expression was expressed as the average number of positive cells per high magnification field. […]

Assay [13] concerns ER-α. Put plainly: Western blot of ER-α expression in MCF-7 cells. The class given is cell-based, human. As to conditions: doxorubicin at the high dose (1 μM).

Consider `COc1cccc2c1C(=O)c1c(O)c3c(c(O)c1C2=O)C[C@@](O)(C(=O)CO)C[C@@H]3O[C@H]1C[C@H](N)[C@H](O)[C@H](C)O1` [doxorubicin, reference compound], for which the cytotoxicity at 0.5 µM in assay [1] (Homo sapiens, MCF7, MCF-7 cells, doxorubicin 0.5 μM, read-out: reduction of cell viability) was ~67%; in [2] (Homo sapiens, MDA-MB-231, doxorubicin 0.5 μM, read-out: reduction of cell viability) it was 25%. Further, the “further reduction of cell viability versus 0.5 μM” value in assay [1] (MCF-7 cells, doxorubicin 1 μM) is reported as “No further reduction”; in [2] (doxorubicin 1 μM) it was “No further reduction”. For the same compound, the “effect on cell viability, MCF-7 cells relative to MDA cells” value in assay [1] (doxorubicin 1 μM) is “approximately two-fold”. The “cyclin A expression (normalized to β-actin)” value in assay [3] (MCF-7 cells) and in assay [3] (MDA cells) was “reduction” in each case. Also, the “cyclin B1 expression (normalized to β-actin)” value in assay [4] (MCF-7 cells) and in assay [4] (MDA cells) was “reduction” each time. Besides, the average tumor weight in [5] worked out at 0.34 ± 0.09 g. The “PCNA levels in tumor xenografts” value in [6] was “higher in untreated MDA tumor xenografts”. In assay [7], the “expression of Bcl-xL in tumors” value was “decreased expression”. Also, the “survivin level in tumors” value in assay [8] is given as “decreasing”. In addition, the “number of apoptotic cells (TUNEL)” value in [9] is reported as 9.0±2.1. The Bcl-xL protein expression entry in assay [10] (MCF-7 cells) and in [10] (MDA cells) was “downregulated” in each case. Moreover, the survivin protein expression result in [11] (MCF-7 cells) and in [11] (MDA cells) was “downregulated” in each case. Further, the “ceramide levels in tumor xenografts (ceramide positive cells counted)” value in [12] stood at 6.2±1.3. For the same compound, the “ER-α protein level (normalized to β-actin)” value in assay [13] is on record as “decreased”.
